Here are results for 10 compounds from US11440913B2, “Aminoimidazopyridazines as kinase inhibitors” (BRISTOL-MYERS SQUIBB COMPANY, priority 2017, dated 2022).

In assay [1] the target is His-GST-TVMV-hRIPK1(1-324) (Homo sapiens (Human), UniProt Q13546). Nature of the assay: RIPK1 HTRF Binding Assay. To be noted: HTRF binding, 1 h at rt; read-out: RIPK1 (IC50). In a few lines: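 HTRF probe-displacement binding: 1 nM His-GST-TVMV-hRIPK1(1-324) (baculovirus construct), 90.6 nM probe, 0.2 nM anti-GST-Tb in 20 mM HEPES, 10 mM MgCl2, 0.015% Brij-35, 4 mM DTT, 0.05 mg/mL BSA. Incubated 1 h at rt; FRET 520/495 nm ratio, inhibition relative to DMSO-only wells.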
On the technique in general: TR-FRET usually uses a lanthanide donor and a delayed reading to cut background.

The subject of assay [2] is MLKL phosphorylation in HT29-L23 human colorectal adenocarcinoma cells. Nature of the assay: MLKL Phosphorylation High-Content Assay. To be noted: 6 h, necroptosis induced with TNFα, SMAC mimetic and Z-VAD, read-out: pMLKL (IC50). The format is cell-based. In a few lines: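 HT29-L23 cells pretreated 30 min at 37 °C with compound (6.25 to 0.106 μM final), then necroptosis induced with TNFα 35 ng/mL, SMAC mimetic 700 nM and Z-VAD 140 nM for 6 h. Fixed cells immunostained for MLKL pS358 and imaged; IC50 and Ymax from 4-parameter logistic fit.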

Where a name gives a salt, the structure may show the parent alone. Read-outs that look alike come from different tables or passages of the source.

Sequence of His-GST-TVMV-hRIPK1(1-324) (Q13546 1-324): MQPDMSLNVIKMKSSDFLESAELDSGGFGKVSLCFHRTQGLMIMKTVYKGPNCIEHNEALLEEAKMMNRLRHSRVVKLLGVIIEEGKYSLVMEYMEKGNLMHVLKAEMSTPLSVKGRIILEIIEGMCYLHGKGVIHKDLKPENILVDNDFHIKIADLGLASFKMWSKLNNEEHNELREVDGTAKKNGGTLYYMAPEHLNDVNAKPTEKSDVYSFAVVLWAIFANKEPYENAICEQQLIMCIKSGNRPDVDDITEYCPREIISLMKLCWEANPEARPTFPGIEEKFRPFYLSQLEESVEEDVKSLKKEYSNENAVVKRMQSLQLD

In the case of `[2H]C([2H])([2H])Oc1ncc(-c2ccc3nc(NC(C)=O)cn3n2)cc1C(=O)NCc1cc(F)cc(F)c1OC([2H])([2H])C1CC1` [Example 49, N-({2-[cyclopropyl(deutero)methoxy]-3,5-difluorophenyl}methyl)-5-{2-acetamidoimidazo[1,2-b]pyridazin-6-yl}-2-(D3)methoxypyridine-3-carboxamide], the half-maximal inhibitory concentration (IC50) in assay [1] was 3 nM; in assay [2] (Homo sapiens) it was 5 nM.
With `CC(=O)Nc1cn2nc(-c3cc(C(=O)NCc4cc(F)cc(F)c4OCC4CC4)cnc3C)ccc2n1` [Example 16, N-{[2-(cyclopropylmethoxy)-3,5-difluorophenyl]methyl}-5-{2-acetamidoimidazo[1,2-b]pyridazin-6-yl}-6-methylpyridine-3-carboxamide], the IC50 turned out to be 4 nM in assay [1] and 5 nM in assay [2] (Homo sapiens).
Take `CC(=O)Nc1cn2nc(-c3cnc(C)c(C(=O)NCc4cc(F)ccc4OC4CCCC4)c3)ccc2n1` [Example 222, N-{[2-(cyclopentyloxy)-5-fluorophenyl]methyl}-5-{2-acetamidoimidazo[1,2-b]pyridazin-6-yl}-2-methylpyridine-3-carboxamide]: the IC50 was 3 nM in assay [1] and 2 nM in assay [2] (Homo sapiens).
As for `COc1ncc(-c2ccc3nc(NC(C)=O)cn3n2)cc1C(=O)NCCC(O)c1ccc(Cl)cc1` (centres unmarked) [Example 23, N-[3-(4-chlorophenyl)-3-hydroxypropyl]-5-{2-acetamidoimidazo[1,2-b]pyridazin-6-yl}-2-methoxypyridine-3-carboxamide], the IC50 in assay [1] is 124 nM; in assay [2] (Homo sapiens) it was 127 nM.
Regarding `COc1ncc(-c2ccc3nc(NC(C)=O)cn3n2)cc1C(=O)N[C@@H](C)c1cc(C(F)(F)F)ccc1F` [Example 106, 5-{2-acetamidoimidazo[1,2-b]pyridazin-6-yl}-N-[(1S)-1-[2-fluoro-5-(trifluoromethyl)phenyl](2,2,2-deutero)ethyl]-2-methoxypyridine-3-carboxamide], the half-maximal inhibitory concentration (IC50) in assay [1] was 84 nM; in assay [2] it was 95 nM.
For `CCC(=O)Nc1cn2nc(-c3cnc(OC)c(C(=O)NCC[C@H](O)c4ccc(Cl)cc4)c3)ccc2n1` [Example 246, N-[(3S)-3-(4-chlorophenyl)-3-hydroxypropyl]-2-methoxy-5-{2-propanamidoimidazo[1,2-b]pyridazin-6-yl}pyridine-3-carboxamide], the IC50 is 92 nM in assay [1] and 105 nM in assay [2] (Homo sapiens).
With `COCC(=O)Nc1cn2nc(-c3cnc(OC)c(C(=O)NCc4cc(OC(F)(F)F)ccc4F)c3)ccc2n1` [Example 262, N-{[2-fluoro-5-(trifluoromethoxy)phenyl]methyl}-2-methoxy-5-[2-(2-methoxyacetamido)imidazo[1,2-b]pyridazin-6-yl]pyridine-3-carboxamide], the results for the IC50 in assay [1] and in assay [2] (Homo sapiens) were 39 nM and 74 nM, respectively.
Consider `CC(=O)Nc1cn2nc(-c3cnc(Cl)c(C(=O)NCc4cccc(OC(F)(F)F)c4)c3)ccc2n1` [Example 272, 2-chloro-5-{2-acetamidoimidazo[1,2-b]pyridazin-6-yl}-N-{[3-(trifluoromethoxy)phenyl]methyl}pyridine-3-carboxamide, TFA], for which the figures for the IC50 in assay [1] and in assay [2] were 26 nM and 122 nM, respectively.
On to `CC(=O)Nc1cn2nc(-c3cnc(C)c(C(=O)NCC(C)(O)Cc4ccc(F)cc4)c3)ccc2n1` (centres unmarked) [Example 356, 5-{2-acetamidoimidazo[1,2-b]pyridazin-6-yl}-N-[3-(4-fluorophenyl)-2-hydroxy-2-methylpropyl]-2-methylpyridine-3-carboxamide], for which the IC50 in assay [1] worked out at 150 nM; in assay [2] (Homo sapiens) it was 485 nM.
For `COc1nc(C)c(-c2ccc3nc(NC(C)=O)cn3n2)cc1C(=O)NCc1ccc(F)cc1OCC1CC1` [Example 317, N-{[2-(cyclopropylmethoxy)-4-fluorophenyl]methyl}-5-{2-acetamidoimidazo[1,2-b]pyridazin-6-yl}-2-methoxy-6-methylpyridine-3-carboxamide] the same measures were 3 nM and 19 nM.

As a reminder, the IC50 is the concentration that inhibits the measured activity by half.
